Measurements from publication PMC3367765 (Pflugers Archiv, 2012).
Where two headings read alike, the source gives them in different places.

T1: Kvβ3 (Mus musculus, UniProt F6YMI4)
T1 sequence (F6YMI4 1-404): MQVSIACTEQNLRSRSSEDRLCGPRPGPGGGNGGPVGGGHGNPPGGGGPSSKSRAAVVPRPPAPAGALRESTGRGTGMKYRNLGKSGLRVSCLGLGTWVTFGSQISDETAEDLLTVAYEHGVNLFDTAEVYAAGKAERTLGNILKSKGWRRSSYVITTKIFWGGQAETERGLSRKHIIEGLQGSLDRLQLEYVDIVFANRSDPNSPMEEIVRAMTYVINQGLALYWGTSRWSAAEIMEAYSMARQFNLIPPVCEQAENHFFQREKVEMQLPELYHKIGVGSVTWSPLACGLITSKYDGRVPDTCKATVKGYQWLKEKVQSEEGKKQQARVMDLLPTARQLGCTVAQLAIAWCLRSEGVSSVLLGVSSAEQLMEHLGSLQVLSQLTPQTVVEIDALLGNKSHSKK

T2: Kvβ2 (AKR part, amino acid residues 39-367) (UniProt P62483 39-367)
T2 sequence (looked up): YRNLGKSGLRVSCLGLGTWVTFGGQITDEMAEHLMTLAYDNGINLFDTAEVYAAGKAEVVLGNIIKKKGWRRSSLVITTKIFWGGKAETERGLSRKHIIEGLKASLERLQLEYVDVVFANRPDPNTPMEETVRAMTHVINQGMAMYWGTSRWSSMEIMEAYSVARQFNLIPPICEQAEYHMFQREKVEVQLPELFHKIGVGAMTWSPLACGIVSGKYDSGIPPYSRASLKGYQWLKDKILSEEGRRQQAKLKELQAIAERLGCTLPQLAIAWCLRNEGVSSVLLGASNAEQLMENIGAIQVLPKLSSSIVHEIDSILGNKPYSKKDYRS


Legend:
Kvβ3 = molecular target: T1, Kvβ3; experiment: fluorescence titration; format: binding
[1] = molecular target: T2, Kvβ2 (AKR part, amino acid residues …); experiment: pull-down
[2] = molecular target: T2, Kvβ2 (AKR part, amino acid residues …); experiment: pull-down; remark: listed apart in the source

Kd (Kvβ3) | Kd [1] | Kd [2] | Molecule
5.6 ± 0.26 µM | – | – | NC(=O)C1=CN([C@@H]2O[C@H](COP(=O)(O)OP(=O)(O)OC[C@H]3O[C@@H](n4cnc5c(N)ncnc54)[C@H](OP(=O)(O)O)[C@@H]3O)[C@@H](O)[C@H]2O)C=CC1 [NADPH]
38 ± 9 µM | – | – | NC(=O)c1ccc[n+]([C@@H]2O[C@H](COP(=O)(O)OP(=O)(O)OC[C@H]3O[C@@H](n4cnc5c(N)ncnc54)[C@H](OP(=O)(O)O)[C@@H]3O)[C@@H](O)[C@H]2O)c1 [NADP^+]
– | 9.9 ± 1.7 µM | 5.2 ± 0.8 µM | GST-C60 protein expressed from pDEST-26 vector (domain or fragment, rat, UniProt P19024 543-602, looked up) RKVSCSKASFCKTGGSLESSDSIRRGSCPLEKCHLKAKSNVDLRRSLYALCLDTSRETDL
